Source: PubChem BioAssay (NCI)
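Each compound was tested at five concentrations against cells in 96-well plates for 48 hours. TGI is the concentration that stops growth completely.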

Legend:
Assay in all cases: inhibition of tumour cell growth, NCI panel, 48 h
RXF 393 renal = tested on: RXF 393 renal
SW-620 colon = tested on: SW-620 colon
MALME-3M melanoma = tested on: MALME-3M melanoma
HCT-116 colon = tested on: HCT-116 colon
NCI-H23 lung = tested on: NCI-H23 lung
HOP-62 NSCLC = tested on: HOP-62 NSCLC
EKVX NSCLC = tested on: EKVX NSCLC
SF-268 CNS = tested on: SF-268 CNS
HS 578T breast = tested on: HS 578T breast
HL-60(TB) leukemia = tested on: HL-60(TB) leukemia
OVCAR-4 ovarian = tested on: OVCAR-4 ovarian
SK-MEL-2 melanoma = tested on: SK-MEL-2 melanoma
COLO 205 colon = tested on: COLO 205 colon
HOP-92 NSCLC = tested on: HOP-92 NSCLC
SF-539 CNS = tested on: SF-539 CNS
NCI/ADR-RES ovarian = tested on: NCI/ADR-RES ovarian
MOLT-4 leukemia = tested on: MOLT-4 leukemia
KM20L2 colon = tested on: KM20L2 colon
DMS 114 small cell lung = tested on: DMS 114 small cell lung
RPMI-8226 leukemia = tested on: RPMI-8226 leukemia

Measured: TGI

O=c1c2cccnc2oc2c(Cl)cc(-c3nn[nH]n3)cc12
not listed: MOLT-4 leukemia | KM20L2 colon | DMS 114 small cell lung | RPMI-8226 leukemia
> 100 µM: all other assays above

O=C1C(Cl)N(c2ccc([N+](=O)[O-])cc2)C1c1c[nH]c2ccccc12 (centres undefined)
not listed: HS 578T breast | NCI/ADR-RES ovarian
> 100 µM: all other assays above
